From ChEMBL document CHEMBL1140524, “Facile one-pot synthesis of thio and selenourea derivatives: a new class of potent urease inhibitors” (Bioorg Med Chem Lett, 2007)
Calls of active or inactive are those of the source. The calls are words filed in the database; no cut-off is given here.

How the values were obtained:
[1] = molecular target: Urease (Canavalia ensiformis, UniProt P07374); experiment: (§1) Inhibition of jack bean urease
[2] = molecular target: Urease (Canavalia ensiformis) (UniProt P07374); experiment: as §1
Chain of Urease (Canavalia ensiformis) (P07374 whole entry, looked up): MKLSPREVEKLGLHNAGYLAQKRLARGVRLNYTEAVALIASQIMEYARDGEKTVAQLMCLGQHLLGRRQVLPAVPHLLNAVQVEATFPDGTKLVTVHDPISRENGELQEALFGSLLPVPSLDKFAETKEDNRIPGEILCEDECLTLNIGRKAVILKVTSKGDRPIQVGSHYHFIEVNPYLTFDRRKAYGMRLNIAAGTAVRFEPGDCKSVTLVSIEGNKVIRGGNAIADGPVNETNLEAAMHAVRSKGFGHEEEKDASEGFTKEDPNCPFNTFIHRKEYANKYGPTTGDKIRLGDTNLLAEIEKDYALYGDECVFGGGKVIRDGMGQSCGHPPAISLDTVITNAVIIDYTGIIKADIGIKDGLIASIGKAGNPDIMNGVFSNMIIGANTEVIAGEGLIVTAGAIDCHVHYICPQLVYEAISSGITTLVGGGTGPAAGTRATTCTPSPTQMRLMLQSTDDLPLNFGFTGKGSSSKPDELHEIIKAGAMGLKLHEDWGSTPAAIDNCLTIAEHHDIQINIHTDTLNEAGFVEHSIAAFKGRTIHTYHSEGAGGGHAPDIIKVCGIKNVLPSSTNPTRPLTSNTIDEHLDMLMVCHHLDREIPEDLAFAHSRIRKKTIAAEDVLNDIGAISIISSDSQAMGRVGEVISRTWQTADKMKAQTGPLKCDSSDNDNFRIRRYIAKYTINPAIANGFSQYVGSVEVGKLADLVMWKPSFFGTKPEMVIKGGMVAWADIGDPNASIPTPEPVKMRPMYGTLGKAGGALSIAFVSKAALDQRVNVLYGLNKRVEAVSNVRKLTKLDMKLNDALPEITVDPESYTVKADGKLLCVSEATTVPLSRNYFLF

Chain of Urease (P07374 whole entry): as the sequence (P07374 whole entry, looked up) above

SMILES	Ki [1] [µM]	Activity [2]
CN(C)C(=[Se])NCc1ccc(Br)cc1	0.135	
C[C@H](NC(=[Se])N(C)C)c1cccc2ccccc12	0.094	
CC(C)N(C(=[Se])N(C)C)C1CCCCC1	0.025	
CN(C)C(=[Se])N1CCOCC1		inactive
CN(C)C(=S)N1CCOCC1		inactive
CCCCCCCCCCCCNC(=S)N(C)C	0.124	
CN(C)C(=S)Nc1ccc(Br)cc1	0.255	
